Holding throughout (assay type): in vivo
Experiment [1] deals with rat. Briefly: Maximal Electroschock Test (MES), rat. As to conditions: ip. An excerpt: (§1) 1. Maximal Electroschock Test (MES) in mice, a method described by Woodbury and Davenport, Arch int. Pharmacodyn. Ther. 92, P. 97-107 (1952).
(§2) In the MES pharmacological test referred to hereinbefore, the stated compounds had the given ED50 when administered i.p. to mice or rats as appropriate.

Experiment [2] has as its system muscle tone. In words: Muscle tone in mammals (general statement). As to conditions: in words.
The test system of experiment [3] is mice. Briefly: Maximal Electroschock Test (MES) in mice. The following applies: Mus musculus, ip.
From the text: as §1, §2

The test system of experiment [4] is polysynaptic reflex contractions. In words: Muscle Relaxant Activity: polysynaptic reflex contractions in the cat. The following applies: oral dose of from 100-150 mg/kg. Here is the method:
(§3) The effect of trans 3-fluoro-N-cyclopropylcinnamamide as a centrally acting muscle relaxant was determined using a method based on that described in Berger, F. M. & Bradley, W. (Br. J. Pharmac. Chemother, (1946), 1, 265-272) and Crankshaw, D. P. & Raper, C. (Br. J. Pharmac. (1970), 38, 148-156).

For experiment [5], the system named is monosynaptic kneed-jerk reflex. Briefly: Muscle Relaxant Activity: monosynaptic knee-jerk reflex in the cat. As to conditions: oral dose of from 100-150 mg/kg. Here is the method: as §3

In experiment [1], `O=C(/C=C/c1cccc(C(F)(F)F)c1)NC1CC1` [Trans 3-Trifluoromethyl-N-Cyclopropylcinnamamide] displayed a median effective dose (ED50) of 56 mg/kg.
Take `O=C(/C=C/c1cccc(F)c1)NC1CC1` [formula (IA), 3-fluoro-N-cyclopropylcinnamamide]: in experiment [2], the muscle tone result is on record as “decreases muscle tone in mammals”.
Regarding `O=C(/C=C/c1cccc(Br)c1)NC1CC1` [trans 3-bromo-N-cyclopropylcinnamamide, Trans 3-Bromo-N-cyclopropylcinnamamide], the 50% effective dose (ED50) in experiment [3] is 77 mg/kg.
In experiment [3], `O=C(/C=C/c1cccc(F)c1)NC1CC1` [trans 3-fluoro-N-cyclopropylcinnamamide, Trans 3-Fluoro-N-cyclopropylcinnamamide] showed a median effective dose (ED50) of 60 mg/kg. In experiment [4], the polysynaptic reflex contractions result is “suppressed polysynaptic reflex contractions”. For the same molecule, in experiment [5], the monosynaptic kneed-jerk reflex entry is “without affecting the monosynaptic kneed-jerk reflex”.

As usually defined, the ED50 is the dose at which the effect has come halfway, by size or by number of responders. Lower therefore signals greater potency.

For the origin of these results see patent publication US4190674A, “3-Fluoro-N-cyclopropylcinnamide” (Burroughs Wellcome Co., priority 1977, dated 1980).
